Where two headings read alike, the source gives them in different places.
Key:
[1] = ABTS radical decolorization assay (antioxidant capacity); format: biochemical; settings: 15 min, 734 nm
[2] = system: Trichophyton mentagrophytes; assay: anti-fungal growth inhibition, T. mentagrophytes; format: cell-based; settings: Trichophyton mentagrophytes, 168 h; for inhibition at 25 µM: read-out: Inhibition rate (25 μM); for inhibition at 50 µM: read-out: Inhibition rate (50 μM); for inhibition at 100 µM: read-out: Inhibition rate (100 μM)
Description: (§1) Evaluation of anti-fungal activity. In a single well of the 96-well microplate, 10 μL of the testing compound is added into 190 μL of growth medium (Difco™ YM) containing an overnight culture of Trichophyton rubrum or Trichophyton mentagrophytes at a density of approximately 5×10^5 CFU. The testing compounds include dihydro-resveratrol and DR1 to DR11. Wells incubated with 10 μL 0.5% DMSO only (i.e. no testing compound) are served as the experimental control of fungal growth whilst those incubated with growth medium only (i.e. no fungi) are served as the negative control. […] The percentage of growth inhibition of T. mentagrophytes by the different concentrations of testing compounds is shown in Table 10 whilst the percentage of growth inhibition of T. rubrum is shown in Table 11. The images of T. mentagrophytes culture are captured post treatment of dihydro-resveratrol (100 μM) and DR8 (100 μM) when compared to the growth of experimental control and negative control (FIG. 30).

Trichophyton rubrum = assay: anti-fungal growth inhibition, T. rubrum; format: cell-based; settings: Trichophyton rubrum, 168 h; for inhibition at 25 µM: read-out: Inhibition rate (25 μM); for inhibition at 50 µM: read-out: Inhibition rate (50 μM); for inhibition at 100 µM: read-out: Inhibition rate (100 μM)
Description: as §1

Streptococcus mutans = assay: anti-bacterial growth inhibition, S. mutans; format: cell-based; settings: Streptococcus mutans; for inhibition at 25 µM: read-out: Inhibition rate (25 μM); for inhibition at 50 µM: read-out: Inhibition rate (50 μM); for inhibition at 100 µM: read-out: Inhibition rate (100 μM)
Description: (§2) Evaluation of anti-bacterial activity. In a single well of the 96-well microplate, 10 μL of the testing compound is added into 190 μL of growth medium growth medium (BBL™ Brain Heart Infusion) containing an overnight culture of Streptococcus mutans or Streptococcus sobrinus at a density of approximately 5×10^5 CFU. The testing compounds include dihydro-resveratrol and DR1 to DR11. Wells incubated with 10 μL 0.5% DMSO only (i.e. no testing compound) are served as the experimental control of bacterial growth whilst those incubated with growth medium only (i.e. no bacteria) are served as the negative control. […] The percentage of growth inhibition of S. mutans by the different concentrations of testing compounds is shown in Table 12 whereas the percentage of growth inhibition of S. sobrinus is shown in Table 13. The images of S. mutans culture are captured post treatment of dihydro-resveratrol (100 μM) and DR8 (100 μM) when compared to the growth of experimental control and negative control (FIG. 31).

Streptococcus sobrinus = assay: anti-bacterial growth inhibition, S. sobrinus; format: cell-based; settings: Streptococcus sobrinus; for inhibition at 25 µM: read-out: Inhibition rate (25 μM); for inhibition at 50 µM: read-out: Inhibition rate (50 μM); for inhibition at 100 µM: read-out: Inhibition rate (100 μM)
Description: as §2

pancreatic acinar cells = format: cell-based; settings: rat, 24 h
Description: Functional intact acini were dissociated from pancreatic tissue using collagenase digestion with mild shearing forces. Acini were cultured in Dulbecco's modification of Eagle's medium (GIBCO) supplemented with 5% fetal bovine serum (GIBCO), 1% penicillin-streptomycin (GIBCO) in a 5% CO2, 95% air humidified atmosphere at 37° C. […] MTT reagent was added to the cells at the end of the 24-hour treatment period. After a 3-hour reaction time, MTT products were dissolved in DMSO and absorbance at 570 nm was taken.

[3] = system: skin color at the arms of individual human subjects; assay: skin colorimeter ITA° measurement after topical stilbenoid solution; format: in vivo
Description: To determine the skin color of the individual human subjects, the initial skin conditions at the arms of the individuals are tested by the skin colorimeter MPA 5 on day 0. The individual typology angle (ITA°) is calculated by the colorimeter based on the luminance (L*) and yellow-blue component (b*) values. The greater the ITA° value, the greater the skin whiteness [S. Del Bino and F. Bernerd. Variations in skin colour and the biological consequences of ultraviolet radiation exposure. British Journal of Dermatology 2013; 169 (Suppl. 3), 33-40]. In fact, skin colors are classified into 6 major divisions: very light, light, intermediate, tan, brown and dark as listed in Table 4. Two areas (2 cm×2 cm each) are selected as treated areas whereas regions surrounding the treated areas on the arms are regarded as control areas. A volume of 200 μL of the testing stilbenoids (2% by weight dissolved in ethanol) is applied to the designated area twice a day, day and night. At the end of the first week (day 7), individuals are tested with the skin colorimeter for recording the data about using the stilbenoids for 7 days. Again, at the end of the second week (day 14), individuals are tested with the skin colorimeter for recording the data about using the stilbenoids for 14 days.

[4] = T. mentagraphytes, 25 μM, one week, 30° C., OD 510 nm
[5] = T. mentagraphytes, 50 μM, one week, 30° C., OD 510 nm
[6] = T. mentagraphytes, 100 μM, one week, 30° C., OD 510 nm
[7] = T. rubrum, 25 μM, one week, 30° C., OD 510 nm
[8] = T. rubrum, 50 μM, one week, 30° C., OD 510 nm
[9] = T. rubrum, 100 μM, one week, 30° C., OD 510 nm
[10] = S. mutans, 25 μM, 10 hours, 30° C., OD 600 nm
[11] = S. mutans, 50 μM, 10 hours, 30° C., OD 600 nm
[12] = S. mutans, 100 μM, 10 hours, 30° C., OD 600 nm
[13] = S. sobrinus, 25 μM, 10 hours, 30° C., OD 600 nm
[14] = S. sobrinus, 50 μM, 10 hours, 30° C., OD 600 nm
[15] = S. sobrinus, 100 μM, 10 hours, 30° C., OD 600 nm

In the case of O=C(Cc1ccccc1)Oc1ccc(CCc2cc(OC(=O)Cc3ccccc3)cc(OC(=O)Cc3ccccc3)c2)cc1 [DR10], the “Trolox equivalent (mg), antioxidant capacity” value [1] is reported as 0 mg, the inhibition at 25 µM [2] is reported as 3.14% and the inhibition at 50 µM [2] is reported as 12.6%. It also gave an inhibition at 100 µM [2] of 20.9%, an inhibition at 25 µM (Trichophyton rubrum) of 8.53% and an inhibition at 50 µM (Trichophyton rubrum) of 6.36%. The inhibition at 100 µM (Trichophyton rubrum) was 10.7%, the inhibition at 25 µM (Streptococcus mutans; 10 h) was 3.42% and the inhibition at 50 µM (Streptococcus mutans; 10 h) was 3.56%. For the same compound, the inhibition at 100 µM (Streptococcus mutans; 10 h) was 2.44%, the inhibition at 25 µM (Streptococcus sobrinus; 10 h) was 13.8% and the inhibition at 50 µM (Streptococcus sobrinus; 10 h) was 11.3%. The inhibition at 100 µM (Streptococcus sobrinus; 10 h) was 15.8%.
For CC(C)(C)C(=O)Oc1ccc(CCc2cc(OC(=O)C(C)(C)C)cc(OC(=O)C(C)(C)C)c2)cc1 [DR11], the “Trolox equivalent (mg), antioxidant capacity” value [1] was 0 mg, the inhibition at 25 µM [2, 4] was 13.1% and the inhibition at 50 µM [2, 5] was 13.4%. It also gave an inhibition at 100 µM [2, 6] of 9.36%, an inhibition at 25 µM (Trichophyton rubrum; [7]) of 8.1% and an inhibition at 50 µM (Trichophyton rubrum; [8]) of 7.58%. It also gave an inhibition at 100 µM (Trichophyton rubrum; [9]) of 9.54%, an inhibition at 25 µM (Streptococcus mutans; [10]) of 5.49% and an inhibition at 50 µM (Streptococcus mutans; [11]) of 6.86%. It also gave an inhibition at 100 µM (Streptococcus mutans; [12]) of 4.13%, an inhibition at 25 µM (Streptococcus sobrinus; [13]) of 10.5% and an inhibition at 50 µM (Streptococcus sobrinus; [14]) of 12.6%. The inhibition at 100 µM (Streptococcus sobrinus; [15]) was 0.18%.
For Oc1ccc(/C=C/c2cc(O)cc(O)c2)cc1 [Trans-resveratrol, trans-resveratrol, reference compound], the “cytotoxicity (MTT, mitochondrial metabolic rates)” value (pancreatic acinar cells) was “roughly 250 μM”, the “whitening effect on skin” value ([3]; 2% by weight in ethanol, topical twice a day, most individuals) was “Overt whitening effect” and the “ITA° measurement” value ([3]; Individual No. 1, day 7, 2% solution topical) was 47.7 ± 1.155 °. For the same compound, the “ITA° measurement” value ([3]; Individual No. 1, day 14, 2% solution topical) was 46.4 ± 0.548 °, the “ITA° measurement” value ([3]; Individual No. 2, day 7, 2% solution topical) was 39.2 ± 2.564 ° and the “ITA° measurement” value ([3]; Individual No. 2, day 14, 2% solution topical) was 44.8 ± 2.871 °. For the same compound, the “ITA° measurement” value ([3]; Individual No. 3, day 7, 2% solution topical) was 38.0 ± 1.732 °, the “ITA° measurement” value ([3]; Individual No. 3, day 14, 2% solution topical) was 36.2 ± 1.789 ° and the “ITA° measurement” value ([3]; Individual No. 4, day 7, 2% solution topical) was 22.4 ± 1.715 °. The “ITA° measurement” value ([3]; Individual No. 4, day 14, 2% solution topical) was 29.4 ± 1.342 °, the “ITA° measurement” value ([3]; Individual No. 5, day 7, 2% solution topical) was 26.6 ± 1.159 ° and the “ITA° measurement” value ([3]; Individual No. 5, day 14, 2% solution topical) was 34.0 ± 2.168 °. For the same compound, the “ITA° measurement” value ([3]; Individual No. 6, day 7, 2% solution topical) was 28.2 ± 2.718 °, the “ITA° measurement” value ([3]; Individual No. 6, day 14, 2% solution topical) was 41.8 ± 3.372 ° and the “ITA° measurement” value ([3]; Individual No. 7, day 7, 2% solution topical) was 20.6 ± 1.140 °. The “ITA° measurement” value ([3]; Individual No. 7, day 14, 2% solution topical) was 20.4 ± 0.578 °, the “ITA° measurement” value ([3]; Individual No. 8, day 7, 2% solution topical) was 14.0 ± 1.232 ° and the “ITA° measurement” value ([3]; Individual No. 8, day 14, 2% solution topical) was 9.6 ± 1.342 °. For the same compound, the “ITA° measurement” value ([3]; Individual No. 9, day 7, 2% solution topical) was −7.2 ± 1.789 °, the “ITA° measurement” value ([3]; Individual No. 9, day 14, 2% solution topical) was −7.4 ± 1.140 ° and the inhibition at 25 µM [2, 4] was 5.35%. The inhibition at 50 µM [2, 5] was 13.9%, the inhibition at 100 µM [2, 6] was 32.4% and the inhibition at 25 µM (Trichophyton rubrum; [7]) was 6.56%. For the same compound, the inhibition at 50 µM (Trichophyton rubrum; [8]) was 11.6%, the inhibition at 100 µM (Trichophyton rubrum; [9]) was 21.6% and the inhibition at 25 µM (Streptococcus mutans; [10]) was 8.91%. For the same compound, the inhibition at 50 µM (Streptococcus mutans; [11]) was 5.77%, the inhibition at 100 µM (Streptococcus mutans; [12]) was 3.83% and the inhibition at 25 µM (Streptococcus sobrinus; [13]) was 6.71%. For the same compound, the inhibition at 50 µM (Streptococcus sobrinus; [14]) was 1.17% and the inhibition at 100 µM (Streptococcus sobrinus; [15]) was 2.46%.

Source: patent US10351500B2, “Method of using of dihydro-resveratrol or its stilbenoid derivatives and/or chemical variants as antimicrobial agents” (Hong Kong Baptist University, priority 2015, dated 2019)
